The source made the active and inactive calls. No cut-off for these calls is given here.
Columns and labels:
[1] = target: T1, Tyrosine-protein kinase JAK3 (Homo sapiens, UniProt P52333); assay: Inhibition of JAK3 (unknown origin) using CSKtide as substrate after 30 mins in presence of [gamma32P]ATP by top-count liquid scintillation counting method
T1 sequence (P52333 whole entry): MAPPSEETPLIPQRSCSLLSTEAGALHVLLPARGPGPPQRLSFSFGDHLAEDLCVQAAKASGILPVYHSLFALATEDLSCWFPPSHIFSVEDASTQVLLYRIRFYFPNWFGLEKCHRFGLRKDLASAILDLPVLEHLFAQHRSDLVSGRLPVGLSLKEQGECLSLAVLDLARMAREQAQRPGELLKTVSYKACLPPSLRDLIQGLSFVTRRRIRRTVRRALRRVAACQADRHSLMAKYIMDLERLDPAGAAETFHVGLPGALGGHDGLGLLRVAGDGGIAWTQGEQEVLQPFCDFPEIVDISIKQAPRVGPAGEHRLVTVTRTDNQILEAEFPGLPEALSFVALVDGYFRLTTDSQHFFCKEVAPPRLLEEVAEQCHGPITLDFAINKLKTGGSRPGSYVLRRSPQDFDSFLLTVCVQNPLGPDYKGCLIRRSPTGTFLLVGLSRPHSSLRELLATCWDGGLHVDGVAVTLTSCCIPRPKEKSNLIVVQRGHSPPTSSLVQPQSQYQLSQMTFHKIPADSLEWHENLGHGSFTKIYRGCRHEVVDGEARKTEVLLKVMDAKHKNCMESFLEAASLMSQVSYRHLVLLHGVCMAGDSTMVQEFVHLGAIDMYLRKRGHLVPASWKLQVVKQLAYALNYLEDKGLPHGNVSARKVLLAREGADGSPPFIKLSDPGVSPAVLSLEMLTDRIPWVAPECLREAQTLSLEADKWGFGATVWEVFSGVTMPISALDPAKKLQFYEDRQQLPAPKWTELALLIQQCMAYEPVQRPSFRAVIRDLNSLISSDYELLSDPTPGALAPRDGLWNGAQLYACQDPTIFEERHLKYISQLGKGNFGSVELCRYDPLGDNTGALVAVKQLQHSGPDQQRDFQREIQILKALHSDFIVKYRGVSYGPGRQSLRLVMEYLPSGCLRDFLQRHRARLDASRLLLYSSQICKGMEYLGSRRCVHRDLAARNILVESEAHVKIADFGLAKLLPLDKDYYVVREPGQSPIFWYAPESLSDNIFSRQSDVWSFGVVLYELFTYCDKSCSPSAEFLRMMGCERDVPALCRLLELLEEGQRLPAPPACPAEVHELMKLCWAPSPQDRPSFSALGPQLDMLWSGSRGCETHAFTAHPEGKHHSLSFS

[2] = target: Non-receptor tyrosine-protein kinase TYK2 (Homo sapiens, UniProt P29597); assay: Inhibition of His-tagged TYK2 (unknown origin) using fluoresceinated peptide as substrate after 3 hrs by caliper assay
Sequence of Non-receptor tyrosine-protein kinase TYK2 (P29597 whole entry): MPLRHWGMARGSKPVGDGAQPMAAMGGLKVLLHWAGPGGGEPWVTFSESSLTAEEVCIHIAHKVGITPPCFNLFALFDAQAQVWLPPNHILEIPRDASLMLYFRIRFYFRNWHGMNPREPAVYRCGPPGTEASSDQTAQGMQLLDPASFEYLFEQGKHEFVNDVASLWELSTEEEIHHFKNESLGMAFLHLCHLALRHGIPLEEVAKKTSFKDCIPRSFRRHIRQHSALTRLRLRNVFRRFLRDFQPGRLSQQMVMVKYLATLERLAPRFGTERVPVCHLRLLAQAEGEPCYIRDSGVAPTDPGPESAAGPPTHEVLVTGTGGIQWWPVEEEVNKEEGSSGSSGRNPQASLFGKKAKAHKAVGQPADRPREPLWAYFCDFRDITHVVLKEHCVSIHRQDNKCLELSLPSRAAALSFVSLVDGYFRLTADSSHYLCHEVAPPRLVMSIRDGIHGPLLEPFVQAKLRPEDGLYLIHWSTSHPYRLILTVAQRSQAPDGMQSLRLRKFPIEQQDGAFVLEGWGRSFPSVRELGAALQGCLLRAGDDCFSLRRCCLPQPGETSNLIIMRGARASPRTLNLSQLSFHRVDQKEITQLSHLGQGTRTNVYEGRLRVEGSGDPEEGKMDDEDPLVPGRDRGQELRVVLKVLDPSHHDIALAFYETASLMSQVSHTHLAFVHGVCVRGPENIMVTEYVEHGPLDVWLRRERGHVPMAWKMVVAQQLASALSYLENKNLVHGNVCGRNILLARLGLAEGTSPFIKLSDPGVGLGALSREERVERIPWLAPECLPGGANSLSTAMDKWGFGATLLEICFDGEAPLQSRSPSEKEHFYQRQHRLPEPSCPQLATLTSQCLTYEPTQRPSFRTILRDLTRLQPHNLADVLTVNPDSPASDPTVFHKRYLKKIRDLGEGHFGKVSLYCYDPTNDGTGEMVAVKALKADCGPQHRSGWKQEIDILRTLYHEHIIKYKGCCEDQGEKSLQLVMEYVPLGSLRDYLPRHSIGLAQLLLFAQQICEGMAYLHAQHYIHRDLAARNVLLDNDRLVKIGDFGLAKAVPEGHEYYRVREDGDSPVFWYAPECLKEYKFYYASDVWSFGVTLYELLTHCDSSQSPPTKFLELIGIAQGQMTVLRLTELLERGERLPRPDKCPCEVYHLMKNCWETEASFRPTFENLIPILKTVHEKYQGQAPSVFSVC

[3] = target: Tyrosine-protein kinase JAK1 (Homo sapiens, UniProt P23458); assay: Inhibition of GST-tagged JAK1 (unknown origin) using fluoresceinated peptide as substrate after 3 hrs by caliper assay
Sequence of Tyrosine-protein kinase JAK1 (P23458 whole entry): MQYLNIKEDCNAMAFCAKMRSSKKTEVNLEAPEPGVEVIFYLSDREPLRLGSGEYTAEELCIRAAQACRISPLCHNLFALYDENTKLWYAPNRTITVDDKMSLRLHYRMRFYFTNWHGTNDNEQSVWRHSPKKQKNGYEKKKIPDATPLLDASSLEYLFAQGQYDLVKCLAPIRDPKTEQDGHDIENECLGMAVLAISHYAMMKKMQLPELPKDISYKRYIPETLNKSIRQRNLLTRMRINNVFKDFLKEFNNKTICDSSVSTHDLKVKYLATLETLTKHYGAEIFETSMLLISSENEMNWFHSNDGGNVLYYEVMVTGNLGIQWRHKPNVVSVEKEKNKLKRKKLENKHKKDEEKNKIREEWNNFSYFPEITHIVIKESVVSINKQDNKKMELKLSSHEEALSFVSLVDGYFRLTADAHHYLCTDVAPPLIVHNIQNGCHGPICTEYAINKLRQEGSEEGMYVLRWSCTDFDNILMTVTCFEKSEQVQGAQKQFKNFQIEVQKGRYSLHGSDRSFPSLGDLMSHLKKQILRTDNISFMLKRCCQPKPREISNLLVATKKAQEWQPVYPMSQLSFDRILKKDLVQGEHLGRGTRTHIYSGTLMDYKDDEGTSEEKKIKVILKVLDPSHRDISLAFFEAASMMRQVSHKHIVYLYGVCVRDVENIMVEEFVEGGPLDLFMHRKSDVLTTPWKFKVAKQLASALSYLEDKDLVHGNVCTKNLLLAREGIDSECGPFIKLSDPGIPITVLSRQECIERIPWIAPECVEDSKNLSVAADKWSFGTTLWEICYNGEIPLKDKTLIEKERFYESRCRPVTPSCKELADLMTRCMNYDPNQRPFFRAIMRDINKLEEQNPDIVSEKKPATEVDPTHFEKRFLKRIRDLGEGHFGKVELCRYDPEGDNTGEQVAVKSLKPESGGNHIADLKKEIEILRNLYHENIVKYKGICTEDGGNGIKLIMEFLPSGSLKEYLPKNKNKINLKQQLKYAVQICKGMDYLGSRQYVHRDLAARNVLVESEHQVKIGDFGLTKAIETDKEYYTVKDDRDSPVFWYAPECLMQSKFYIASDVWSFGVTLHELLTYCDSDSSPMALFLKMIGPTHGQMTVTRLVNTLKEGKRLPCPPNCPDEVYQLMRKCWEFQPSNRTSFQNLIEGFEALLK

[4] = system: T-cell; assay: Inhibition of IL-2 induced cell proliferation in human PBMC derived T cells pretreated for 60 mins followed by IL-2 addition measured after 3 days by [3H]thymidine incorporation assay; type: functional, cell-based
[5] = target: T2, Tyrosine-protein kinase JAK2 (Homo sapiens, UniProt O60674); assay: Inhibition of GST-tagged JAK2 (unknown origin) using fluoresceinated peptide as substrate after 3 hrs by caliper assay
T2 sequence (O60674 whole entry): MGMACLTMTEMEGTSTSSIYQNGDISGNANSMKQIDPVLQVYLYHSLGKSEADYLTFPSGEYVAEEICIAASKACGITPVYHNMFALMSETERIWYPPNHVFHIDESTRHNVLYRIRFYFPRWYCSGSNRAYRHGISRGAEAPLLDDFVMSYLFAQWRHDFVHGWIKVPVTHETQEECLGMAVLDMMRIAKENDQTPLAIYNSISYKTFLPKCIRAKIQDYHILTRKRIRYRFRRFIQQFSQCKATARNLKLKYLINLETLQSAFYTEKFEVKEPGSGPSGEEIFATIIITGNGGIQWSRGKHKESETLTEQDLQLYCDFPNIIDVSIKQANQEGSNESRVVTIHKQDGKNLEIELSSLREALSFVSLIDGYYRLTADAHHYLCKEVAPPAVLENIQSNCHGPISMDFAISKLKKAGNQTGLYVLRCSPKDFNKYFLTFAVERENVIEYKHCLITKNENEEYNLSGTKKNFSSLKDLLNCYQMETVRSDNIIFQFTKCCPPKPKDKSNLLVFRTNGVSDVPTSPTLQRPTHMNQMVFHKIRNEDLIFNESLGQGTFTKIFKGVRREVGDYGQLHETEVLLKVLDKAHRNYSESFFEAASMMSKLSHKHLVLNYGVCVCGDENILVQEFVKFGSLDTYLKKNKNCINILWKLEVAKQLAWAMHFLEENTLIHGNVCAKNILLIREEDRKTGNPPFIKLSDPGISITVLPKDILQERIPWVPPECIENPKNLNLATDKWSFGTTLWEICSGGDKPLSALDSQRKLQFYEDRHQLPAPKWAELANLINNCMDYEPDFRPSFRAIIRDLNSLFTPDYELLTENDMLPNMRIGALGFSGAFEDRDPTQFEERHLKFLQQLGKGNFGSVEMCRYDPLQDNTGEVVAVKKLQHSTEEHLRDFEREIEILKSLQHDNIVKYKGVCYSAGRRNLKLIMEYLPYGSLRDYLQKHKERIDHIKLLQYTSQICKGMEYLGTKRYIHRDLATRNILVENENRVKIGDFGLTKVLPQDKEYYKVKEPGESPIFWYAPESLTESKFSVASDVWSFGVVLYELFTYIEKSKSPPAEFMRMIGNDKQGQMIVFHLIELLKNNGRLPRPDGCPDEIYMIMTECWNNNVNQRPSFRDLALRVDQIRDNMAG

[6] = target: T3, Tyrosine-protein kinase BTK (Homo sapiens, UniProt Q06187); assay: Inhibition of BTK in goat anti-human IgM F(ab')2-stimulated human whole blood assessed as suppression of BCR-induced CD69 expression on B cells after 18 hrs by FACS analysis
T3 sequence (Q06187 whole entry): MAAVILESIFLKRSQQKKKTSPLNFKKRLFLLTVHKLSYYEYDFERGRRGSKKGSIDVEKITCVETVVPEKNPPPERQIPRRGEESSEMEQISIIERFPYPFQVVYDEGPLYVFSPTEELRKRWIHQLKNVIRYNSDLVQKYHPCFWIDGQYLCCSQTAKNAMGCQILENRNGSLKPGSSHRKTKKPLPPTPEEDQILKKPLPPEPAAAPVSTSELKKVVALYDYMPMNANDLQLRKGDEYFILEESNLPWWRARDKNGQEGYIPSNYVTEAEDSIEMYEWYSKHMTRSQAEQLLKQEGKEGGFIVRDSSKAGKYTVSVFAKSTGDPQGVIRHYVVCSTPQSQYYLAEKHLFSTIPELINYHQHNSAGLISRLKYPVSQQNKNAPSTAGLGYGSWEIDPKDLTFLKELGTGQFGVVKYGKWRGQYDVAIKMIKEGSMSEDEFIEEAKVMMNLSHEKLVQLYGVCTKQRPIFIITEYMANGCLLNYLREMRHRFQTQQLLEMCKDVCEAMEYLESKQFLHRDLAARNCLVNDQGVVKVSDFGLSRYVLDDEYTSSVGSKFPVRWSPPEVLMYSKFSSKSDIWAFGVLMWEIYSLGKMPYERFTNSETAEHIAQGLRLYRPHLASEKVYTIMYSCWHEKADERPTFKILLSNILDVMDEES

[7] = target: T3, Tyrosine-protein kinase BTK; assay: Inhibition of full length human His-tagged BTK expressed in baculovirus expression system using GEEPLYWSFPAKKK-NH2 as substrate pretreated for 45 mins followed by ATP addition measured after 10 mins by topcount scintillation counting analysis
[8] = target: T3, Tyrosine-protein kinase BTK; assay: Inhibition of full length human His-tagged BTK expressed in baculovirus expression system using GEEPLYWSFPAKKK-NH2 as substrate pretreated for 120 mins followed by ATP addition measured after 10 mins by topcount scintillation counting analysis
[9] = target: T3, Tyrosine-protein kinase BTK; assay: Time-dependent inhibition of full length human His-tagged BTK expressed in baculovirus expression system using GEEPLYWSFPAKKK-NH2 as substrate by topcount scintillation counting analysis
[10] = target: T3, Tyrosine-protein kinase BTK; assay: Inhibition of full length human His-tagged BTK expressed in baculovirus expression system using GEEPLYWSFPAKKK-NH2 as substrate pretreated for 15 mins followed by ATP addition measured after 10 mins by topcount scintillation counting analysis
[11] = system: Blood; assay: Inhibition of IL2-induced IFNgamma production in human whole blood; type: functional
[12] = target: T3, Tyrosine-protein kinase BTK; assay: Inhibition of full length human His-tagged BTK expressed in baculovirus expression system using GEEPLYWSFPAKKK-NH2 as substrate measured after 10 mins in presence of ATP by topcount scintillation counting analysis
[13] = target: JAK1/TYK2 (Homo sapiens, UniProt P23458+P29597); assay: Inhibition of JAK1/TYK2 in human PBMC derived T cell assessed as reduction in IFNa2a-induced STAT3 phosphorylation after 30 mins by ELISA; type: protein-complex assay
Sequence of JAK1/TYK2 (P23458 whole entry): as the sequence (P23458 whole entry) above
Sequence of JAK1/TYK2 (P29597 whole entry): as the sequence (P29597 whole entry) above

[14] = target: T4, Tyrosine-protein kinase JAK3 (Homo sapiens) (UniProt P52333)
T4 sequence (whole entry): T1 sequence (P52333 whole entry)
Description: Time-dependent inhibition of JAK3 (unknown origin) using CSKtide as substrate in presence of [gamma32P]ATP by top-count liquid scintillation counting method

[15] = target: Epidermal growth factor receptor (Homo sapiens, UniProt P00533); assay: Inhibition of EGFR (unknown origin) by caliper assay
[16] = target: T2, Tyrosine-protein kinase JAK2; assay: Inhibition of JAK2 in human TF1 cells assessed as reduction in EPO-induced STAT5A phosphorylation pretreated for 30 mins followed by EPO addition measured after 10 mins by ELISA; type: cell-based
[17] = target: JAK3/JAK1 (Homo sapiens, UniProt P23458+P52333); assay: Inhibition of JAK1/JAK3 in human PBMC derived T cell assessed as reduction in IL2-induced STAT3 phosphorylation after 30 mins by ELISA; type: protein-complex assay
Sequence of JAK3/JAK1 (P23458 whole entry, one chain of several): as the sequence (P23458 whole entry) above

[18] = target: T3, Tyrosine-protein kinase BTK; assay: Inhibition of full length human His-tagged BTK expressed in baculovirus expression system using GEEPLYWSFPAKKK-NH2 as substrate measured immediately in presence of ATP by topcount scintillation counting analysis
[19] = Bioavailability in mouse; type: ADME, organism-based; settings: in vivo
[20] = target: Macrophage colony-stimulating factor 1 receptor (Homo sapiens, UniProt P07333); assay: Inhibition of FMS (unknown origin) by caliper assay
[21] = target: T4, Tyrosine-protein kinase JAK3 (Homo sapiens); assay: Inhibition of JAK3 (unknown origin) using CSKtide as substrate pretreated measured after 30 mins in presence of [gamma32P]ATP by top-count liquid scintillation counting method

Row | Compound | IC50 [1] | IC50 [2] | IC50 [3] | IC50 [4] | IC50 [5] | further results
1 | NC(=O)c1cnn2cccc2c1NCc1cccc(NC(=O)Cn2sc3ccccc3c2=O)c1 | 30 nM | 240 nM | 196 nM | 5480 nM | 745 nM | 
2 | NC(=O)c1cnc(Nc2ccccc2)cc1NCc1ccccc1 |  | 774 nM | 219 nM |  | 203 nM | 
3 | C/C=C/C(=O)Nc1cccc(CNc2c(C(N)=O)cnn3cccc23)c1 | 175 nM | > 2000 nM | 1420 nM | 26600 nM | > 2000 nM | 
4 | NC(=O)c1cnn2cccc2c1NCc1cccc(NC(=O)COc2c(F)c(F)c(F)c(F)c2F)c1 | 743 nM | > 2000 nM | > 2000 nM | 15400 nM | > 2000 nM | 
5 | C=CC(=O)Nc1cccc(CNc2cc(Nc3ccccc3)ncc2C(N)=O)c1 | < 1 nM | > 5000 nM | 1100 nM | 22 nM | 1300 nM | IC50 [6]: > 10000 nM; EC50 [7]: 2890 nM; EC50 [8]: 1580 nM; TDI [9]: Active; EC50 [10]: 6560 nM; IC50 [11]: 490 nM; IC50 [12]: > 2500 nM; IC50 [13]: 4900 nM; TDI [14]: Active; IC50 [15]: > 10000 nM; IC50 [16]: 11000 nM; IC50 [17]: 51 nM; EC50 [18]: 19800 nM; bioavailability [19]: < 30%; IC50 [20]: 180 nM
6 | CN(C)/C=C(/C#N)C(=O)Nc1cccc(CNc2c(C(N)=O)cnn3cccc23)c1 | 942 nM | > 2000 nM | > 2000 nM | 14400 nM | > 2000 nM | 
7 | CCC(=O)Nc1cccc(CNc2cc(Nc3ccccc3)ncc2C(N)=O)c1 | 100 nM |  |  |  |  | inhibition [21]: Active
8 | C=CS(=O)(=O)Nc1cccc(CNc2c(C(N)=O)cnn3cccc23)c1 | 3.5 nM | > 2000 nM | 974 nM | 6700 nM | 1270 nM | 
9 | NC(=O)c1cnn2cc(-c3ccccc3)cc2c1NCc1ccccc1 | 14 nM | 118 nM | 214 nM |  | 438 nM | 
10 | N#CCC(=O)Nc1cccc(CNc2c(C(N)=O)cnn3cccc23)c1 | 35 nM | 2000 nM | 264 nM | 8450 nM | 658 nM | 
11 | C=CC(=O)Nc1cccc(CNc2c(C(N)=O)cnn3cccc23)c1 | 1.3 nM | > 2000 nM | 1700 nM | 55 nM | > 2000 nM | IC50 [11]: 2300 nM
